Structures are written as SMILES. Bounds are passed on as bounds.

The values that follow come from publication PMC10418970, “Effective and Selective Ru(II)-Arene Complexes Containing 4,4′-Substituted 2,2′ Bipyridine Ligands Targeting Human Urinary Bladder Cancer Cells” (International Journal of Molecular Sciences, 2023).

For one data set, the system named is EB-CTDNA adduct. Nature of the data set: EB/CTDNA fluorescence competition (quenching). Format: binding, calf. As to conditions: [DNA] 5 μM, [EB] 5 μM, complex 0-50 μM. Here is the method: To learn more about the binding properties of 1–7 with CTDNA, the fluorescence competition technique is employed. EB is an orange fluorescent dye and an intercalating agent for DNA.
3.2 Fluorescence titration experiments
The displacement of the EB-bound was obtained by
treated with a saturating ethidium bromide 5 µM.
Figure S5. […] [DNA]= 5 µM,
[EB] = 5 µM and [complex] = 0˗50 µM. […]

Data set [1] concerns the target T1, Bovine serum albumin (BSA) (Bos taurus, UniProt P02769).
T1 construct: purchased Sigma Aldrich
Nature of the data set: BSA fluorescence titration (Stern-Volmer, Scatchard). As to conditions: for number of binding sites (n) on BSA: Scatchard equation; for BSA quenching constant Kq: [BSA] 1 μM, complex 0-20 μM, phosphate buffer pH 7.2. Format: binding. From the text:
To explore the mode of complex-protein interaction, we monitor the BSA fluorescence quenching at […] by addition of increasing amounts of 1–7 to a fixed quantity of BSA (Figure S7). […] The molar absorptivity of tyrosine and phenylalanine are 10- and 200-fold weaker than tryptophan, respectively, and are ignored in the modelling. […] The complex binding-induced fluorescence quenching is described by the linear Stern–Volmer relationship (Figure 12A) to obtain the quenching constant Kq (see SI for details). Further, the equilibrium binding constant (Kb) of the complex to BSA and the number of binding sites (n) are obtained by casting the fluorescence intensity in the absence of quencher (F^0) and quencher concentration [Q] dependent F into the Scatchard equation [35]: log [(F^0− F)/F] = log Kb + n log[Q], as shown in Figure 12B.
4 Interaction of complexes with Bovine serum albumin
4.1 Fluorescence titration
The interaction of complexes with BSA was studied using fluorescence spectra, recorded at a fixed excitation wavelength corresponding to BSA at 280 nm and monitoring the emission at 335 nm. Stock solution of BSA were prepared by dissolving commercial BSA in 50mM phosphate buffer (pH 7.2) and stored at 4 οC for further use.
Concentrated stock solution of each test compound were prepared by dissolving it in DMF-phosphate buffer (5:95) and diluted with phosphate buffer to get required concentrations. For the fluorescence measurements, 2.5 mL solution of BSA was titrated with successive additions of […] stock solution of complexes (0-20 µM) […]
Figure S7. Fluorescence quenching curves of BSA in the absence and presence of complexes 1-7. […]

The subject of data set [2] is MCF-10a-breast epithelial cells. Nature of the data set: MTT cell proliferation assay, MCF-10a. The format is cell-based, human. As to conditions: 24 h incubation; healthy cells. (Tetrazolium assays rely on reduction of a dye to a coloured formazan, in cell work by metabolically active cells.)
For the next data set, the system named is Vero cells. Nature of the data set: MTT cell proliferation assay, Vero. The format is cell-based, African green monkey. As to conditions: 24 h incubation; healthy cells.
Data set [3] concerns EA.hy926 endothelial cells. Nature of the data set: MTT cell proliferation assay, EA.hy926. Format: cell-based, human. To be noted: 24 h incubation.
For another data set, the system named is HepG-2-hepatic cells. Nature of the data set: MTT cell proliferation assay, HepG-2. Format: cell-based, human. To be noted: 24 h incubation.
For the next data set, the system named is T24-bladder cells. Nature of the data set: MTT cell proliferation assay, T24. To be noted: 24 h incubation. Format: cell-based, human.
The test system of another data set is T24 cells. Nature of the data set: Flow cytometry FITC Annexin V apoptosis assay. Format: cell-based, human. To be noted: at IC50 concentration (1: […]; 2: 14.5 μM). On the procedure:
Figure S10. Cytotoxic effects of complexes ( 1-7) against (A) EA.hy-926, (B) HepG-2, (C) T24, (D) normal kidney (Vero) cells
and (E) MCF-10a-breast epithelial . Data expressed in SD±mean with three replicates.
After 24 h incubation, control and treated cells were stained with acriddine
orange (AO)/ethidium bromide (EB) and incubated for 10 min. The images were taken immediately under fluorescent
8. Flow cytometry studies
The cell apoptotic rate was determined by flow cytometry analysis with the fluorescein isothiocyanate (FITC)
Annexin V apoptosis detection kit (Multi Sciences, China). T24 cancer cells were collected by trypsinization, washed
twice and resuspended in […], 1 × binding buffer with […] of FITC Annexin V and […] of PI. After incubation for
15 min, the samples were subjected to analysis by flow cytometry. The results were analysed with the BD FACS Calibur™
(1 picture or pasted object on this page, not shown here)
In general terms: A flow cytometer gives signals particle by particle.

A short description of data set [4]: Shake-flask water-octanol Log p. To be noted: n-octanol / water containing 0.45% sodium chloride, 0.5 mM, 37 °C.
Experimental: The complex was dissolved in a mixture with equal volumes of pre-saturated n-octanol and water to a final concentration of 0.5 mM. The mixture was shaken at 250 rpm for 24 h at 37 °C and then centrifuged at 3000 rpm for 10 min. The complex concentration (C) in each phase was measured by UV-Vis spectroscopy and used to calculate Log p, according to the formula Log p = log (Coctanol/Cwater).

T1 sequence (P02769 25-607): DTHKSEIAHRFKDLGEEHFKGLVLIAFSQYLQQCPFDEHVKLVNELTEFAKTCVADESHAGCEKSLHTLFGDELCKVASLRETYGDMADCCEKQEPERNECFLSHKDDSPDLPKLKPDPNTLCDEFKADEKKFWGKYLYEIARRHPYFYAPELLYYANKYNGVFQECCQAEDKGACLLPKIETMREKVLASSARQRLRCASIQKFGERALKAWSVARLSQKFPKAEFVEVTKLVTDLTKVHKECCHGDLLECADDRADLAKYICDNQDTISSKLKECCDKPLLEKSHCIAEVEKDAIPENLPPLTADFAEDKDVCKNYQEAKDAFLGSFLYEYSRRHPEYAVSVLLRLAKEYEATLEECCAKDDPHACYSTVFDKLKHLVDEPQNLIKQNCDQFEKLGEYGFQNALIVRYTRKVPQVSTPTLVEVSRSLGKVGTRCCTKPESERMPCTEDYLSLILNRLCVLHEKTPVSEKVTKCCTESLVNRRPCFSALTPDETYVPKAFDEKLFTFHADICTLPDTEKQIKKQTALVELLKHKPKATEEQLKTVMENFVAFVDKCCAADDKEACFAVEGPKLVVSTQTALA

As to `Cc1ccc(C(C)C)cc1.O=C(O)c1ccnc(-c2cc(C(=O)O)ccn2)c1.[Cl-].[Cl-].[Ru+2]` [Complex 2, [Ru-η^6-p-cymene-(4,4′-(COOH)2bipy)Cl]Cl], the “Stern–Volmer quenching constant Kq (EB/CTDNA)” value in the data set with EB-CTDNA adduct is given as 4.89 10^4 M^−1. Besides, the “number of binding sites (n) on BSA” value in data set [1] is reported as 1.2. Further, the “BSA quenching constant Kq” value in [1] is 6.446 × 10^4 10^4 M^−1. The IC50 (in general, the concentration needed to halve the response being measured) in data set [2] was greater than 50 µM; with Vero cells, greater than 50 µM; in data set [3] it was greater than 50 µM; with HepG-2-hepatic cells, greater than 50 µM; in the data set with T24-bladder cells, 14.5 µM. Further, the “apoptotic rate (late + early)” value with T24 cells stood at 18.24%. The “early apoptosis (Q3)” value in the data set with T24 cells stood at 10.9%. Further, the “late apoptosis (Q2)” value in the data set with T24 cells stood at 7.34%. Also, the solubility result in “Solubility (observation)” is recorded as “more soluble in high polar organic solvents”. For the same molecule, the “Log p Exp. Shake Flask” value in [4] is −1.65.
As for `CCOC(=O)c1ccnc(-c2cc(C(=O)OCC)ccn2)c1.[Cl-].[Cl-].[Ru+2].c1ccccc1` [Complex 7, [Ru-η^6-benzene-(4,4′-(COOC2H5)2bipy)Cl]Cl], in the data set on EB-CTDNA adduct, the “Stern–Volmer quenching constant Kq (EB/CTDNA)” value is given as 7.21 10^4 M^−1. In addition, the “apparent DNA binding constant Kapp” value in the data set with EB-CTDNA adduct is reported as 3.61 10^6 M^−1. The “number of binding sites (n) on BSA” value in [1] is listed as 1.1. For the same molecule, in [1], the “BSA quenching constant Kq” value is 4.779 × 10^4 10^4 M^−1. The IC50 was greater than 50 µM in data set [2]; 33.9 µM with Vero cells; 23.8 µM in data set [3]; 41.6 µM with HepG-2-hepatic cells; 19.8 µM in the data set with T24-bladder cells. For the same molecule, the “Log p Exp. Shake Flask” value in data set [4] is given as −0.14.
For the molecule `CCOC(=O)c1ccnc(-c2cc(C(=O)OCC)ccn2)c1.Cc1ccc(C(C)C)cc1.[Cl-].[Cl-].[Ru+2]` [Complex 4, [Ru-η^6-p-cymene-(4,4′-(COOC2H5)2bipy)Cl]Cl], the “Stern–Volmer quenching constant Kq (EB/CTDNA)” value with EB-CTDNA adduct is reported as 6.36 10^4 M^−1. Also, in the data set on EB-CTDNA adduct, the “apparent DNA binding constant Kapp” value is 3.18 10^6 M^−1. For the same molecule, the “number of binding sites (n) on BSA” value in data set [1] is given as 1.0. Besides, in data set [1], the “BSA quenching constant Kq” value is 3.777 × 10^4 10^4 M^−1. Moreover, the IC50 in [2] came out at 40.1 µM; in the data set with Vero cells it was 31.2 µM; in [3], 32.3 µM; in the data set on HepG-2-hepatic cells, 21.1 µM; in the data set with T24-bladder cells, 12.3 µM. Moreover, the “Log p Exp. Shake Flask” value in data set [4] is 0.88.
Regarding `COC(=O)c1ccnc(-c2cc(C(=O)OC)ccn2)c1.[Cl-].[Cl-].[Ru+2].c1ccccc1` [Complex 6, [Ru-η^6-benzene-(4,4′-(COOCH3)2bipy)Cl]Cl], in the data set on EB-CTDNA adduct, the “Stern–Volmer quenching constant Kq (EB/CTDNA)” value was 6.69 10^4 M^−1. The “apparent DNA binding constant Kapp” value in the data set on EB-CTDNA adduct was 3.34 10^6 M^−1. The “number of binding sites (n) on BSA” value in [1] worked out at 1.0. In addition, the “BSA quenching constant Kq” value in data set [1] is on record as 3.103 × 10^4 10^4 M^−1. The concentration for half-maximal inhibition (IC50) was greater than 50 µM in [2]; 49.2 µM in the data set on Vero cells; 49.3 µM in data set [3]; 14.5 µM in the data set with HepG-2-hepatic cells; 41.2 µM in the data set on T24-bladder cells. Besides, the “Log p Exp. Shake Flask” value in data set [4] was −1.12.
As to `COC(=O)c1ccnc(-c2cc(C(=O)OC)ccn2)c1.Cc1ccc(C(C)C)cc1.[Cl-].[Cl-].[Ru+2]` [Complex 3, [Ru-η^6-p-cymene-(4,4′-(COOCH3)2bipy)Cl]Cl], the “Stern–Volmer quenching constant Kq (EB/CTDNA)” value in the data set on EB-CTDNA adduct is on record as 6.05 10^4 M^−1. For the same molecule, in the data set with EB-CTDNA adduct, the “apparent DNA binding constant Kapp” value is 3.02 10^6 M^−1. In addition, the “number of binding sites (n) on BSA” value in data set [1] came to 1.0. Besides, the “BSA quenching constant Kq” value in [1] was 3.622 × 10^4 10^4 M^−1. For the same molecule, the IC50 in [2] is greater than 50 µM; in the data set with Vero cells it was 45.6 µM; in data set [3], 30.8 µM; in the data set with HepG-2-hepatic cells it was greater than 50 µM; in the data set with T24-bladder cells, 21.2 µM.
As to `CC(C)(C)c1ccnc(-c2cc(C(C)(C)C)ccn2)c1.[Cl-].[Cl-].[Ru+2].c1ccccc1` [Complex 5, [Ru-η^6-benzene-(4,4′-(C4H9)2bipy)Cl]Cl], the “Log p Exp. Shake Flask” value in [4] worked out at 2.45.
With `N.N.[Cl][Pt][Cl]` [Cisplatin, reference compound], the IC50 in data set [2] is 29.1 µM; in the data set with Vero cells, 33.7 µM; in data set [3] it was 22.9 µM; in the data set on HepG-2-hepatic cells, 49.1 µM; in the data set on T24-bladder cells, greater than 50 µM.
